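Five compound concentrations were applied to cells in 96-well plates for 48 hours; endpoints were derived by simple linear interpolation of the resulting dose-response curve. GI50 = concentration required for 50% inhibition of growth. Definition used: TGI = concentration required for complete inhibition of growth.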
Tests used:
Assay in all cases: inhibition of tumour cell growth, NCI panel, 48 h
786-0 renal = system: 786-0 renal
A498 renal = system: A498 renal
A549 NSCLC = system: A549 NSCLC
ACHN renal = system: ACHN renal
BT-549 breast = system: BT-549 breast
CAKI-1 renal = system: CAKI-1 renal
CCRF-CEM leukemia = system: CCRF-CEM leukemia
COLO 205 colon = system: COLO 205 colon
DU-145 prostate = system: DU-145 prostate
HCC-2998 colon = system: HCC-2998 colon
HCT-116 colon = system: HCT-116 colon
HCT-15 colon = system: HCT-15 colon
HL-60(TB) leukemia = system: HL-60(TB) leukemia
HOP-62 NSCLC = system: HOP-62 NSCLC
HS 578T breast = system: HS 578T breast
HT29 colon = system: HT29 colon
IGROV1 ovarian = system: IGROV1 ovarian
K-562 leukemia = system: K-562 leukemia
KM12 colon = system: KM12 colon
LOX IMVI melanoma = system: LOX IMVI melanoma
M14 melanoma = system: M14 melanoma
MALME-3M melanoma = system: MALME-3M melanoma
MCF7 breast = system: MCF7 breast
MDA-MB-231 breast = system: MDA-MB-231 breast
MDA-MB-435 = system: MDA-MB-435
MDA-MB-468 breast = system: MDA-MB-468 breast
MOLT-4 leukemia = system: MOLT-4 leukemia
NCI-H226 lung = system: NCI-H226 lung
NCI-H23 lung = system: NCI-H23 lung
NCI-H460 lung = system: NCI-H460 lung
NCI-H522 lung = system: NCI-H522 lung
OVCAR-3 ovarian = system: OVCAR-3 ovarian
OVCAR-4 ovarian = system: OVCAR-4 ovarian
OVCAR-5 ovarian = system: OVCAR-5 ovarian
OVCAR-8 ovarian = system: OVCAR-8 ovarian
RPMI-8226 leukemia = system: RPMI-8226 leukemia
RXF 393 renal = system: RXF 393 renal
SF-268 CNS = system: SF-268 CNS
SF-295 CNS = system: SF-295 CNS
SF-539 CNS = system: SF-539 CNS
SK-MEL-2 melanoma = system: SK-MEL-2 melanoma
SK-MEL-28 melanoma = system: SK-MEL-28 melanoma
SK-MEL-5 melanoma = system: SK-MEL-5 melanoma
SK-OV-3 ovarian = system: SK-OV-3 ovarian
SN12C renal = system: SN12C renal
SNB-19 CNS = system: SNB-19 CNS
SNB-75 CNS = system: SNB-75 CNS
SR leukemia = system: SR leukemia
SW-620 colon = system: SW-620 colon
T-47D breast = system: T-47D breast
TK-10 renal = system: TK-10 renal
UACC-257 melanoma = system: UACC-257 melanoma
UACC-62 melanoma = system: UACC-62 melanoma
UO-31 renal = system: UO-31 renal

Cn1cc(-c2cc(N)n3nc(-c4c[nH]c5ccc(Br)cc45)cc3n2)c2cc(Br)cnc21
GI50 (786-0 renal): 1640 nM | TGI (786-0 renal): 3130 nM | GI50 (A498 renal): 1550 nM | TGI (A498 renal): 3420 nM | GI50 (A549 NSCLC): 1840 nM | TGI (A549 NSCLC): 3870 nM | GI50 (ACHN renal): 1660 nM | TGI (ACHN renal): 3120 nM | GI50 (BT-549 breast): 2190 nM | TGI (BT-549 breast): 4360 nM | GI50 (CAKI-1 renal): 1490 nM | TGI (CAKI-1 renal): 3770 nM | GI50 (CCRF-CEM leukemia): 1610 nM | TGI (CCRF-CEM leukemia): 4260 nM | GI50 (COLO 205 colon): 1820 nM | TGI (COLO 205 colon): 3360 nM | GI50 (DU-145 prostate): 1820 nM | TGI (DU-145 prostate): 3530 nM | GI50 (HCC-2998 colon): 1760 nM | TGI (HCC-2998 colon): 3240 nM | GI50 (HCT-116 colon): 1910 nM | TGI (HCT-116 colon): 4250 nM | GI50 (HCT-15 colon): 1690 nM | TGI (HCT-15 colon): 3800 nM | GI50 (HL-60(TB) leukemia): 1790 nM | TGI (HL-60(TB) leukemia): 4330 nM | GI50 (HOP-62 NSCLC): 1680 nM | TGI (HOP-62 NSCLC): 3340 nM | GI50 (HS 578T breast): 2290 nM | TGI (HS 578T breast): 5360 nM | GI50 (HT29 colon): 1970 nM | TGI (HT29 colon): 3840 nM | GI50 (IGROV1 ovarian): 1960 nM | TGI (IGROV1 ovarian): 4110 nM | GI50 (K-562 leukemia): 1890 nM | TGI (K-562 leukemia): 5880 nM | GI50 (KM12 colon): 1590 nM | TGI (KM12 colon): 3160 nM | GI50 (LOX IMVI melanoma): 1700 nM | TGI (LOX IMVI melanoma): 3290 nM | GI50 (M14 melanoma): 1690 nM | TGI (M14 melanoma): 3550 nM | GI50 (MALME-3M melanoma): 1890 nM | TGI (MALME-3M melanoma): 3520 nM | GI50 (MCF7 breast): 1800 nM | TGI (MCF7 breast): 3630 nM | GI50 (MDA-MB-231 breast): 1780 nM | TGI (MDA-MB-231 breast): 3540 nM | GI50 (MDA-MB-435): 1710 nM | TGI (MDA-MB-435): 3210 nM | GI50 (MDA-MB-468 breast): 1360 nM | TGI (MDA-MB-468 breast): 2770 nM | GI50 (MOLT-4 leukemia): 2110 nM | TGI (MOLT-4 leukemia): 10600 nM | GI50 (NCI-H226 lung): 2510 nM | TGI (NCI-H226 lung): 7340 nM | GI50 (NCI-H23 lung): 1760 nM | TGI (NCI-H23 lung): 3600 nM | GI50 (NCI-H460 lung): 1960 nM | TGI (NCI-H460 lung): 4030 nM | GI50 (NCI-H522 lung): 1700 nM | TGI (NCI-H522 lung): 3560 nM | GI50 (OVCAR-3 ovarian): 1670 nM | TGI (OVCAR-3 ovarian): 3130 nM | GI50 (OVCAR-4 ovarian): 1950 nM | TGI (OVCAR-4 ovarian): 3930 nM | GI50 (OVCAR-5 ovarian): 2030 nM | TGI (OVCAR-5 ovarian): 4440 nM | GI50 (OVCAR-8 ovarian): 2010 nM | TGI (OVCAR-8 ovarian): 4220 nM | GI50 (RPMI-8226 leukemia): 2230 nM | TGI (RPMI-8226 leukemia): 7800 nM | GI50 (RXF 393 renal): 1890 nM | TGI (RXF 393 renal): 3690 nM | GI50 (SF-268 CNS): 2250 nM | TGI (SF-268 CNS): 5710 nM | GI50 (SF-295 CNS): 1880 nM | TGI (SF-295 CNS): 4290 nM | GI50 (SF-539 CNS): 1640 nM | TGI (SF-539 CNS): 3160 nM | GI50 (SK-MEL-2 melanoma): 1790 nM | TGI (SK-MEL-2 melanoma): 3740 nM | GI50 (SK-MEL-28 melanoma): 1820 nM | TGI (SK-MEL-28 melanoma): 3640 nM | GI50 (SK-MEL-5 melanoma): 2080 nM | TGI (SK-MEL-5 melanoma): 4490 nM | GI50 (SK-OV-3 ovarian): 2540 nM | TGI (SK-OV-3 ovarian): 7270 nM | GI50 (SN12C renal): 1720 nM | TGI (SN12C renal): 3360 nM | GI50 (SNB-19 CNS): 2150 nM | TGI (SNB-19 CNS): 4760 nM | GI50 (SNB-75 CNS): 1460 nM | TGI (SNB-75 CNS): 3240 nM | GI50 (SR leukemia): 1930 nM | TGI (SR leukemia): 5870 nM | GI50 (SW-620 colon): 1880 nM | TGI (SW-620 colon): 3740 nM | GI50 (T-47D breast): 1800 nM | TGI (T-47D breast): 4330 nM | GI50 (TK-10 renal): 1780 nM | TGI (TK-10 renal): 3990 nM | GI50 (UACC-257 melanoma): 2000 nM | TGI (UACC-257 melanoma): 4310 nM | GI50 (UACC-62 melanoma): 1600 nM | TGI (UACC-62 melanoma): 3070 nM | GI50 (UO-31 renal): 1620 nM | TGI (UO-31 renal): 3360 nM
